What was measured:
[1] = test system: Flame Seedless grapes; assay: Field table grape coloration; format: in vivo; details: for Number of colored clusters per 4 vines: foliar, 200 gallons/acre
Procedure: ABA formulation performance was evaluated in the field using table grape coloration to assess efficacy. Treatments consisted of untreated control, ethephon control (industry standard ethylene-releasing agent), ABA technical (95% ABA solubilized in ethanol), ABA liquid formulation, and ABA water-soluble granule formulation. All treatments had 0.05% v/v Latron B-1956 surfactant included. The three ABA treatments (200 ppm ABA; 200 gallons/acre) and the ethephon control (250 ppm at 200 gallons/acre) were foliar applied with a backpack sprayer at 10 to 20% color development (June 27) on Flame Seedless grapes commercially grown in Arvin, Calif. The numbers of color clusters per 4 vines were assessed at 8 and 11 days after treatment.

[2] = test system: Coleus plants; assay: Greenhouse Coleus wilting (drought tolerance, shelf life); format: in vivo
Procedure: ABA formulation performance was evaluated in the greenhouse using Coleus wilting to assess efficacy. Treatments consisted of control, ABA technical (95% ABA solubilized in ethanol), ABA liquid formulation, and ABA water-soluble granule formulation. Coleus plants were grown in four-inch diameter pots to the 6 to 8 leaf stage (n=4 plants/treatment). Water (15 mL/plant) was drench-applied to the control plants, and ABA (15 mL/plant; 250 ppm ABA) was drench applied to ABA treated plants. The plants were held in a greenhouse without irrigation until all plants wilted to a point when they were determined to be unmarketable. The plants were rated daily for the extent of wilting on a scale from 1 (no wilting) to 4 (complete wilting). A rating of 2.5 was the point at which a plant was determined to be unmarketable and the previous day was recorded as the marketable life of that plant in days.

SMILES	Number of colored clusters per 4 vines ([1]; 8 days after treatment)	Number of colored clusters per 4 vines ([1]; 11 days after treatment)	Number of colored clusters, comparison ([1]; in vivo)	Days of shelf life after treatment ([2]; drench 15 mL/plant, 250 ppm ABA, no irrigation) [days]	Coleus wilting / shelf life, comparison ([2]; in vivo)
CC1=CC(=O)CC(C)(C)[C@@]1(O)/C=C/C(C)=C\C(=O)O [ABA technical, S-(+)-abscisic acid]	9.0	11.2	increased the number of colored clusters more than the ethephon control	12	delayed wilting and increased shelf life of Coleus plants
O=P(O)(O)CCCl [Ethephon control, ethephon, reference compound]	6.0	6.7			

From US8454982B2, “Stable S-(+)-abscisic acid liquid and soluble granule formulations” (Valent BioSciences Corporation, priority 2007, dated 2013)
